From patent US8849577B2, “Methods of identifying biochemical pathways” (Metabolon, Inc., priority 2006, dated 2014)
Entries after “also recorded” stand apart in the source; their conditions may differ.

How the values were obtained:
Assay type in all cases: cell-based, human
preadipocyte cells = test: Comparative metabolomic analysis of PPAR activators in preadipocyte cells; details: 3 hours treatment
Description: The cell used in this assay were preadipocyte cells from a human with a BMI of 23.29. The cells were plated at 1 million per well in 6-well plates. Eight cultures were used for each experimental group. The cells were washed with basal medium (1 ml/well) and treated with compounds in 1 ml of basal medium for 3 hours. After treatment, the cells were then washed with PBS (1 ml), two times and then trypsinized with 300 μl for 5 minutes at 37 degrees. One ml of PM-1 was then added per well to neutralized the trypsin and the cells were collected in 1.5 ml eppendorf tube. The cells were then pelleted by centrifugation (280×g) and the pellets were washed with PBS (1 ml). The cell pellets were then frozen at −80 degrees.

HepG2 = test: Metabolomic analysis of test compounds in HepG2 (hepatocyte) cultures; details: Hepatocytes, 30 μM, vs DMSO; for number of compounds affected, # decreased / number of compounds affected, # increased: p < 0.01
Description: (§1) The cell cultures used in this example were performed according to standard protocols with the cells in 10% FCS. […] The adipocytes were human and fully differentiated.
(§2) The target of the agent is not present in the cell cultures assayed, thus the changed compounds for each culture represent off-target effects, and therefore, the number of changed compounds can be used to generate a score that can be used as one criteria to rank the test compounds.

adipocyte cells = test: Metabolomic analysis of test compounds in adipocyte cultures; details: Primary Adipocytes, 30 μM, vs DMSO; for number of compounds affected, # decreased / number of compounds affected, # increased: p < 0.01
Description: as §1, §2

| Compound | Ratio Drug/DMSO: 3-phospho-I-serine (preadipocyte cells) | Ratio Drug/DMSO: Isobar-17-includes-arginine-N-alpha-acetyl-ornithine (preadipocyte cells) | Ratio Drug/DMSO: Isobar-22-includes-glutamic acid-O-acetyl-L-serine (preadipocyte cells) | Ratio Drug/DMSO: Isobar-28-includes-L-threonine-L-allothreonine-L-homoserine (preadipocyte cells) | Ratio Drug/DMSO: L-alpha-glycerophosphorylcholine (preadipocyte cells) | Ratio Drug/DMSO: N-acetyl-D-galactosamine (preadipocyte cells) | Ratio Drug/DMSO: adenosine-5-monophosphate (preadipocyte cells) | Ratio Drug/DMSO: alanine (preadipocyte cells) | Ratio Drug/DMSO: carnitine (preadipocyte cells) | Ratio Drug/DMSO: citric acid (preadipocyte cells) | Ratio Drug/DMSO: gly-gly (preadipocyte cells) | Ratio Drug/DMSO: glycerol (preadipocyte cells) | Ratio Drug/DMSO: guanosine (preadipocyte cells) | Ratio Drug/DMSO: hypoxanthine (preadipocyte cells) | Ratio Drug/DMSO: inosine (preadipocyte cells) | Ratio Drug/DMSO: n-hexadecanoic acid (preadipocyte cells) | Ratio Drug/DMSO: octadecanoic acid (preadipocyte cells) | Ratio Drug/DMSO: pantothenic acid (preadipocyte cells) | Ratio Drug/DMSO: phosphoenolpyruvate (preadipocyte cells) | Ratio Drug/DMSO: serine (preadipocyte cells) | also measured |
| --- | --- | --- | --- | --- | --- | --- | --- | --- | --- | --- | --- | --- | --- | --- | --- | --- | --- | --- | --- | --- | --- |
| CC(C)(Sc1ccc(CCN(CCCCC2CCCCC2)C(=O)NC2CCCCC2)cc1)C(=O)O [GW7647] | 0.89 | 0.97 | 0.86 | 0.82 | 1.31 | 0.98 | 1.41 | 0.95 | 0.83 | 1.06 | 1.12 | 1.14 | 1.22 | 1.89 | 1.89 | 1.02 | 1.02 | 0.96 | 0.91 | 1.05 | Ratio Drug/DMSO: sn-glycerol-3-phosphate (preadipocyte cells): 1.43; Ratio Drug/DMSO: tryptophan (preadipocyte cells): 1.06; metabolite change relative to DMSO control (preadipocyte cells): increase in glycerol; also recorded: more carnitine is being utilized to shuffle FA into the mitochondria and hence, levels decrease |
| Cc1cccc(C)c1OCC(=O)N[C@@H](Cc1ccccc1)[C@@H](O)C[C@H](Cc1ccccc1)NC(=O)[C@H](C(C)C)N1CCCNC1=O [LPV] | – | – | – | – | – | – | – | – | – | – | – | – | – | – | – | – | – | – | – | – | number of compounds affected, Total p < 0.01 (HepG2): 131; number of compounds affected, # decreased (HepG2): 27; number of compounds affected, # increased (HepG2): 104; number of compounds affected, Total p < 0.01 (adipocyte cells): 99; number of compounds affected, # decreased (adipocyte cells): 46; number of compounds affected, # increased (adipocyte cells): 53 |
| COC(=O)N[C@H](C(=O)N[C@@H](Cc1ccccc1)[C@@H](O)CN(Cc1ccc(-c2ccccn2)cc1)NC(=O)[C@@H](NC(=O)OC)C(C)(C)C)C(C)(C)C [ATV] | – | – | – | – | – | – | – | – | – | – | – | – | – | – | – | – | – | – | – | – | number of compounds affected, Total p < 0.01 (HepG2): 71; number of compounds affected, # decreased (HepG2): 55; number of compounds affected, # increased (HepG2): 16; number of compounds affected, Total p < 0.01 (adipocyte cells): 87; number of compounds affected, # decreased (adipocyte cells): 55; number of compounds affected, # increased (adipocyte cells): 32 |
| Cc1c(C)c2c(c(C)c1O)CCC(C)(COc1ccc(CC3SC(=O)NC3=O)cc1)O2 (stereo not shown) [Troglitazone, troglitazone] | 0.77 | 0.82 | 0.92 | 0.63 | 1.24 | 0.91 | 0.95 | 0.86 | 0.92 | 0.77 | 1.42 | 1.08 | 0.98 | 1.63 | 1.58 | 1.17 | 1.18 | 1.33 | 0.85 | 0.86 | Ratio Drug/DMSO: aspartate (preadipocyte cells): 2.06; Ratio Drug/DMSO: gamma-L-glutamyl-L-glutamin (preadipocyte cells): 0.64; Ratio Drug/DMSO: glutamine (preadipocyte cells): 0.76; Ratio Drug/DMSO: o-phosphoethanolamine (preadipocyte cells): 1.50; Ratio Drug/DMSO: oxidized-glutathione (preadipocyte cells): 0.77; Ratio Drug/DMSO: sn-glycerol-3-phosphate (preadipocyte cells): 1.42; Ratio Drug/DMSO: threonine (preadipocyte cells): 0.83; Ratio Drug/DMSO: tryptophan (preadipocyte cells): 0.98 |
| CC1(COc2ccc(CC3SC(=O)NC3=O)cc2)CCCCC1 (stereo not shown) [Ciglitazone] | 0.91 | 0.87 | 0.99 | 0.72 | 1.81 | 0.36 | 1.09 | 0.91 | 0.90 | 0.86 | 1.36 | 0.93 | 1.55 | 1.76 | 2.25 | 1.05 | 1.05 | 1.10 | 0.76 | 0.98 | Ratio Drug/DMSO: aspartate (preadipocyte cells): 1.29; Ratio Drug/DMSO: gamma-L-glutamyl-L-glutamin (preadipocyte cells): 0.73; Ratio Drug/DMSO: glutamine (preadipocyte cells): 0.78; Ratio Drug/DMSO: o-phosphoethanolamine (preadipocyte cells): 5.42; Ratio Drug/DMSO: oxidized-glutathione (preadipocyte cells): 0.77; Ratio Drug/DMSO: sn-glycerol-3-phosphate (preadipocyte cells): 1.53; Ratio Drug/DMSO: threonine (preadipocyte cells): 0.84; Ratio Drug/DMSO: tryptophan (preadipocyte cells): 0.91 |
